According to patent US20210221822A1, “TRICYCLIC DERIVATIVES INHIBITOR, PREPARATION METHOD, AND APPLICATIONS THEREOF” (Jiangsu Hansoh Pharmaceutical Group Co., Ltd., priority 2018, published 2021):
pIC50: −log10 of the molar value.

Tests used:
[1] = biological target: T1, PI3Kδ (Homo sapiens, UniProt O00329); assay: ADP-Glo lipid kinase assay, PI3Kδ kinase activity; format: biochemical; details: 0.1 nM enzyme, 90 min, 100 μM ATP
T1 construct: purchased Carna 11-103
Experimental: (§1) Experimental method: Promega's ADP-Glo lipid kinase assay method (Promega #V9102) was applied in this experiment. Lipid kinase PI3Kα/β/γ/δ catalyzed the generation of ADP from ATP in the presence of the substrate PIP2: 3PS and ATP. The lipid kinase activity was characterized by measuring the ADP content in the reaction, and the half inhibitory concentration IC50 of the compound on inhibiting PI3Kα/β/γ/δ kinase activity was thus obtained.
(§2) The kinase reaction was carried out in a white 384-well plate (Perkin Elmer #6007299). 2 μL of the compound solution of different concentrations diluted with ddH2O containing 1% DMSO was added to each well. 2 μL of ddH2O containing 1% DMSO was added to the positive control well. 2 μL of 0.1-2 nM PI3K kinase solution diluted with 5× kinase buffer (HEPES 250 mM, MgCl2 15 mM, NaCl 250 mM, BSA 0.05%) was added to each well. 2 μL of 5× kinase buffer was added to the negative control well. 4 μL of 50 μM substrate PIP2: 3PS (Promega #V1701) formulated with 10× Dilution buffer and ddH2O was added to all wells. Finally, 2 μL of […] ATP solution diluted with water was added to start the reaction. After the reaction was carried out at room temperature for 90 to 120 minutes, 10 μL of ADP-Glo Reagent (containing 10 mM MgCl2) was added to each well, and reacted at room temperature for 60 minutes to remove excess ATP in the reaction. 20 μL of Kinase Detection Reagent was added to each well, and reacted at room temperature in the dark for 20 minutes. The chemiluminescence value was measured by the BioTek Synergy H1 microplate reader.
(§3) The percentage inhibition data of the compound-treated well was calculated through the positive control well (DMSO control well) and negative control well (no kinase added) on the plate {% inhibition rate=100−[(test compound value−negative control value)]/(positive control value−negative control value)×100}. The IC50 value was calculated by fitting the data of different concentrations and corresponding percentage inhibition rates to a four-parameter nonlinear logic formula with GraphPad prism.

[2] = biological target: T2, PI3Kβ (Homo sapiens, UniProt P42338); assay: ADP-Glo lipid kinase assay, PI3Kβ kinase activity; format: biochemical; details: 0.4 nM enzyme, 90 min, 100 μM ATP
T2 construct: purchased Carna 11-102
Experimental: as §1, §2, §3

[3] = biological target: T3, PI3Kα (Homo sapiens, UniProt P42336); assay: ADP-Glo lipid kinase assay, PI3Kα kinase activity; format: biochemical; details: for pIC50: ADP-Glo, 0.1 nM enzyme, 120 min, 50 μM ATP; for Selectivity of PI3Kα vs PI3Kγ: ratio of IC50 PI3Kγ to IC50 PI3Kα; for Selectivity of PI3Kα vs PI3Kδ: ratio of IC50 PI3Kδ to IC50 PI3Kα; for Selectivity of PI3Kα vs PI3Kβ: ratio of IC50 PI3Kβ to IC50 PI3Kα
T3 construct: purchased Promega V1721
Experimental: as §1, §2, §3

[4] = biological target: T4, PI3Kγ (Homo sapiens, UniProt P48736); assay: ADP-Glo lipid kinase assay, PI3Kγ kinase activity; format: biochemical; details: 0.4 nM enzyme, 120 min, 50 μM ATP
T4 construct: purchased Thermofisher PV4786
Experimental: as §1, §2, §3

[5] = Pharmacokinetic (PK) assay in mice; format: in vivo; details: male, Balb/c, mouse, plasma, po, single intragastric 5 mg/kg; for AUC(0-t): read-out: Area under curve AUC0-t; for AUC(0-inf): read-out: Area under curve AUC0-∞; for half-life: read-out: Half-life t1/2(h) (converted); for MRT: read-out: Mean residence time MRT; for Tmax: read-out: Peak time tmax; for Cmax: read-out: Plasma concentration Cmax
Experimental: The pharmacokinetic assay of the preferred compounds of the examples of the present invention in mice was carried out in Balb/c male mice (Shanghai Jiesijie Laboratory Animal Co., LTD). • Administration mode: single intragastric administration. • Administration dose: 5 mg/10 ml/kg (body weight). • Formulation: the compound was dissolved in 0.5% CMC-Na by ultrasound to obtain a clear solution or homogeneous suspension. • Sampling points: 0.5, 1, 2, 4, 6, 8 and 24 hours after administration. • Sample process: • 1) 0.1 mL of blood was taken from the orbit, placed in a K2-EDTA tube, and centrifuged for 5 to 20 minutes at room temperature at 1000 to 3000×g to separate the plasma, which was then stored at −80° C. • 2) 160 uL of acetonitrile was added to 40 uL of plasma sample for precipitation, and then the mixture was centrifuged for 5 to 20 minutes at 500 to 2000×g. • 3) 100 uL of processed supernatant was taken and analyzed by LC/MS/MS assay to determine the concentration of the test compound. • LC-MS/MS assay: • Liquid chromatography condition: Shimadzu LC-20AD pump • Mass spectrometry condition: AB Sciex API 4000 mass spectrometer • Chromatographic column: phenomenex Gemiu 5 μm C18 50×4.6 mm • Mobile phase: solution A was 0.1% aqueous formic acid solution, and solution B was acetonitrile • Flow rate: 0.8 mL/min • Elution time: 0-4 minutes gradient elution • Pharmacokinetics: […]
The main parameters were calculated using WinNonlin 6.1.

T2 sequence (P42338 whole entry): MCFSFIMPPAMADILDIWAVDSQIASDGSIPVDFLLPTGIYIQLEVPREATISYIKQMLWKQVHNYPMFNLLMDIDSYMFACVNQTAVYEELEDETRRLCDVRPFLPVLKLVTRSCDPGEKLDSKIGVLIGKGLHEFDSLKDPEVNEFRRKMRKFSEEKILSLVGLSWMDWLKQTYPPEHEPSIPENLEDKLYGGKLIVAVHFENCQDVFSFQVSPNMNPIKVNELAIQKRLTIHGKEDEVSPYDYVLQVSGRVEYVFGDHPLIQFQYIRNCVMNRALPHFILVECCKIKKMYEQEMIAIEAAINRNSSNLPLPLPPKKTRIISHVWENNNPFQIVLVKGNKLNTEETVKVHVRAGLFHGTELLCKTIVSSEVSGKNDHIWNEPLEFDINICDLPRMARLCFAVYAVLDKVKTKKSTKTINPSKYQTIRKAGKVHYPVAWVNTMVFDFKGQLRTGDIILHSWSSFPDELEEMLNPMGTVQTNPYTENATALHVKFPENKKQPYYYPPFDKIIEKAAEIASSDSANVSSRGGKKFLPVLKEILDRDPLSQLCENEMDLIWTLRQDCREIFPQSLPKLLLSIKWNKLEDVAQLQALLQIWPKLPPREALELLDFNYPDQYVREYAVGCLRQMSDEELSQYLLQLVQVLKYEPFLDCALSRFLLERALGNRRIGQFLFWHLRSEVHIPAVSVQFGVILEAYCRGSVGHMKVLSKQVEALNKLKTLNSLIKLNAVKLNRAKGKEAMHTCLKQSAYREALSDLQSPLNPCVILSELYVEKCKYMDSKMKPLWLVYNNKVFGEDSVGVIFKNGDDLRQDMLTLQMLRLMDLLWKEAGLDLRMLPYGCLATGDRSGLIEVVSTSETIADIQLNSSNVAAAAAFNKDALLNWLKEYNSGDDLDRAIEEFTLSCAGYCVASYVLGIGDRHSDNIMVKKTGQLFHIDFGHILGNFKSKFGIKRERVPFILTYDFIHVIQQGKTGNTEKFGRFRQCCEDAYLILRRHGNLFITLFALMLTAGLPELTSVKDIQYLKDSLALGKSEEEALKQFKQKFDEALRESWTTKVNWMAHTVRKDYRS
T2 sequence (P27986 whole entry partner): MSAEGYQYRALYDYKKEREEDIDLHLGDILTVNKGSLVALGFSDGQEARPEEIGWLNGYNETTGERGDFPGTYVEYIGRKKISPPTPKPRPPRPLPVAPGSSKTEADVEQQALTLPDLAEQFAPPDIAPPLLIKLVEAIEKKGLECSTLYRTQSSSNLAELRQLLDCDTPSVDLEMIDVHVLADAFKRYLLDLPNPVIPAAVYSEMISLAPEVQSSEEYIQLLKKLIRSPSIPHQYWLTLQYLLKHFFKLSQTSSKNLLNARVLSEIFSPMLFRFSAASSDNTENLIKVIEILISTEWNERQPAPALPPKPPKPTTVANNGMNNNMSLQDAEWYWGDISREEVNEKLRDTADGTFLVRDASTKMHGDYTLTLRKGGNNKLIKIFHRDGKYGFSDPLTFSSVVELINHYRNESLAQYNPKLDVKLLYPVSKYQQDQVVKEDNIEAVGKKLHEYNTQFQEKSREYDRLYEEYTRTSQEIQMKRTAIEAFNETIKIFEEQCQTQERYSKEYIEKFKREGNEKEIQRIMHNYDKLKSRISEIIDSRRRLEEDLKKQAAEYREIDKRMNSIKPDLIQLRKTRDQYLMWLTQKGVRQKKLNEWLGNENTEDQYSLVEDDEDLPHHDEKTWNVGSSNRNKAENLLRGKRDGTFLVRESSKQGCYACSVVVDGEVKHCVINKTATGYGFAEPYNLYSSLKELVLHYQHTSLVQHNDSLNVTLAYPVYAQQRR
T1 sequence (O00329 whole entry): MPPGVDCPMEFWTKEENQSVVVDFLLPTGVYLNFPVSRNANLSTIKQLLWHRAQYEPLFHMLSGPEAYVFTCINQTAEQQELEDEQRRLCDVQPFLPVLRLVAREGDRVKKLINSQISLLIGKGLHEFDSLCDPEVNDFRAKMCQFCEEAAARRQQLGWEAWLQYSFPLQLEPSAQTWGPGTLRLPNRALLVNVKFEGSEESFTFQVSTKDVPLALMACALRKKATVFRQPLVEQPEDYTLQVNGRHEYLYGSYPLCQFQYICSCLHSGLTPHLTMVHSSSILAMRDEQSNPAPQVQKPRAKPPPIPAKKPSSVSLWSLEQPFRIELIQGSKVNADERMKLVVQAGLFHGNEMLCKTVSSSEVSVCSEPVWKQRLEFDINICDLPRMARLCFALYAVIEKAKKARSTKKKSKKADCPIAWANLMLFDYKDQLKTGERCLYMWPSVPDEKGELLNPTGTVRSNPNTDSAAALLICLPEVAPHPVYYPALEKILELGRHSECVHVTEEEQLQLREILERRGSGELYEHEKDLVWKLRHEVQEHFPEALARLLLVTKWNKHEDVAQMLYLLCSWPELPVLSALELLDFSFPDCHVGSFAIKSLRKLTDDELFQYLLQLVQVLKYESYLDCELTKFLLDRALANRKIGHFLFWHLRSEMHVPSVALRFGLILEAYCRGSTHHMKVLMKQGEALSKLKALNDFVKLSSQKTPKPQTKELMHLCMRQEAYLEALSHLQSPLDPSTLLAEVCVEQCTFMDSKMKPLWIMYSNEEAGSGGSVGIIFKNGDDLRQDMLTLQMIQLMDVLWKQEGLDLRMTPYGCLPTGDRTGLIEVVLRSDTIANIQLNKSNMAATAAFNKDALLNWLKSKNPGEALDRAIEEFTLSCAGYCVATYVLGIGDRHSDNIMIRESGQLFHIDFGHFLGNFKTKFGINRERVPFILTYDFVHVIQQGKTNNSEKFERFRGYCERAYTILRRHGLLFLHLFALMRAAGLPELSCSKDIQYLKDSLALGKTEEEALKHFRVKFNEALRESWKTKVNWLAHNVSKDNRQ
T1 sequence (P27986 whole entry partner): as the sequence (P27986 whole entry partner) above
T4 sequence (P48736 whole entry): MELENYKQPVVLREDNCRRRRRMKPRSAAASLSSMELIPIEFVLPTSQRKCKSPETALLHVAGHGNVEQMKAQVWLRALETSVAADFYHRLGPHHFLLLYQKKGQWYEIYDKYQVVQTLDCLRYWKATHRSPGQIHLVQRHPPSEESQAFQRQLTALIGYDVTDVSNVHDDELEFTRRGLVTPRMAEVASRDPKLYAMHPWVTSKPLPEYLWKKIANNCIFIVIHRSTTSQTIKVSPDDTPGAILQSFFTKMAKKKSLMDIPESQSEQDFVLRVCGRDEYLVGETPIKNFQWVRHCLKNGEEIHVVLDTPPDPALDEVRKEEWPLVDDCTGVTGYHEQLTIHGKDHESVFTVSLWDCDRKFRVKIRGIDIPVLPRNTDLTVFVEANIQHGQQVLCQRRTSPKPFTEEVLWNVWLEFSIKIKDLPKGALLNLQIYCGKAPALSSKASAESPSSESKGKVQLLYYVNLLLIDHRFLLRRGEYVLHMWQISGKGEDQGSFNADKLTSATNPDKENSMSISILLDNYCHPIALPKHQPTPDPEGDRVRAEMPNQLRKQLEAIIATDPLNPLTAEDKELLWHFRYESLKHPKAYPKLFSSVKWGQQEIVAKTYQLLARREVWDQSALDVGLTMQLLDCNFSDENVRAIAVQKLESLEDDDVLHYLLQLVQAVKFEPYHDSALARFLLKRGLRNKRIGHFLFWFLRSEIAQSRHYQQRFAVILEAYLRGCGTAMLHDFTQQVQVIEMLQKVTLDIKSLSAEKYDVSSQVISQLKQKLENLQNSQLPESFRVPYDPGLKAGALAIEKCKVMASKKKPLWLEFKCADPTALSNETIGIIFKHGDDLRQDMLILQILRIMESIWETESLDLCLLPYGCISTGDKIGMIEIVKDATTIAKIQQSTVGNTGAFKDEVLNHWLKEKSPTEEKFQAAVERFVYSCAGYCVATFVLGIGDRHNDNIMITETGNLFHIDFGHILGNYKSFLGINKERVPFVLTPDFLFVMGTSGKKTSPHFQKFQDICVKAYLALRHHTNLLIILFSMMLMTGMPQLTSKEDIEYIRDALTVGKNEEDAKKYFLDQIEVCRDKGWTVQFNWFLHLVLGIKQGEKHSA
T3 sequence (P42336 whole entry): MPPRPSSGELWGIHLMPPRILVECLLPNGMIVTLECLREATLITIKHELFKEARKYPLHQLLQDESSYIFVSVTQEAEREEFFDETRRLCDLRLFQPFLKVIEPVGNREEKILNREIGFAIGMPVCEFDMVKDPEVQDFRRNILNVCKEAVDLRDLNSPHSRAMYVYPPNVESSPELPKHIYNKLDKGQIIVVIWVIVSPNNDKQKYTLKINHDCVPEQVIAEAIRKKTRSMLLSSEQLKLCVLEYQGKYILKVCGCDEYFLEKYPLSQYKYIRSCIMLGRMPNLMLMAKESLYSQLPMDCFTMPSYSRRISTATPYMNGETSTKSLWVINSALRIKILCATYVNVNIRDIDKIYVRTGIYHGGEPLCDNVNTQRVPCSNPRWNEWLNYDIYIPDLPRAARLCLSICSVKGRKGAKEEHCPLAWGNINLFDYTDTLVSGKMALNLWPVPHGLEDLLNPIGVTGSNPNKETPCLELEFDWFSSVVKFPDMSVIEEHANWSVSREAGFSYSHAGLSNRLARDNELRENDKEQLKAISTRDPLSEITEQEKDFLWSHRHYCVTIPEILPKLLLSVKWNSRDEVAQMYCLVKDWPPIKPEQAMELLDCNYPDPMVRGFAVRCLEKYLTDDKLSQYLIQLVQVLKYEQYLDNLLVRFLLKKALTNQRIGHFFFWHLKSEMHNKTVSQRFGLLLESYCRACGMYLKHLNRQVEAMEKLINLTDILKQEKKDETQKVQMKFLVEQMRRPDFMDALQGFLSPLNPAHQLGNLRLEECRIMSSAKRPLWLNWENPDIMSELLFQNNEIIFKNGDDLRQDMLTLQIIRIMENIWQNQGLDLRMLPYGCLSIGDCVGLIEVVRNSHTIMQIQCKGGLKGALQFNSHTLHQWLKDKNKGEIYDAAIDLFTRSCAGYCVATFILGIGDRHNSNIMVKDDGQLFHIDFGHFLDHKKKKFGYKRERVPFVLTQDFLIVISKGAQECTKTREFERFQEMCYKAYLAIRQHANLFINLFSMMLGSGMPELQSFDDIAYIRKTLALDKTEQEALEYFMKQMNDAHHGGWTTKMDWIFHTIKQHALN
T3 sequence (P27986 whole entry partner): as the sequence (P27986 whole entry partner) above

| SMILES | pIC50 [1] | pIC50 [2] | pIC50 [3] | pIC50 [4] | Selectivity of PI3Kα vs PI3Kγ [3] | AUC(0-t) [5] | AUC(0-inf) [5] | half-life [5] | MRT [5] | Tmax [5] | Cmax [5] | Selectivity of PI3Kα vs PI3Kδ [3] | Selectivity of PI3Kα vs PI3Kβ [3] |
| --- | --- | --- | --- | --- | --- | --- | --- | --- | --- | --- | --- | --- | --- |
| COC[C@H](Nc1ccc2c(c1F)OCCn1cc(N3C(=O)SC[C@H]3C(F)F)nc1-2)C(N)=O [Example 109, (S)-2-((2-((R)-4-(difluoromethyl)-2-oxothiazolidin-3-yl)-8-fluoro-5,6-dihydrobenzo[f]imidazo[1,2-d][1,4]oxazepin-9-yl)amino)-3-methoxypropanamide] | 6.46 | 5.97 | 8.17 | 5.94 | – | – | – | – | – | – | – | – | – |
| COC[C@H](Nc1ccc2c(c1)OCCn1cc(N3C(=O)SC[C@H]3C(F)F)nc1-2)C(N)=O [Example 110, (S)-2-((2-((R)-4-(difluoromethyl)-2-oxothiazolidin-3-yl)-5,6-dihydrobenzo[f]imidazo[1,2-d][1,4]oxazepin-9-yl)amino)-3-methoxypropanamide] | 6.86 | 6.12 | 9.00 | 6.42 | – | 13700 ng·h/mL | 13700 ng·h/mL | 2.8 h | 3.7 h | 0.5 h | 4020 ng/mL | – | – |
| C[C@@H](C(N)=O)N(C)c1ccc2c(c1)OCCn1cc(N3C(=O)SC[C@H]3C(F)F)nc1-2 [Example 112, (S)-2-((2-((R)-4-(difluoromethyl)-2-oxothiazolidin-3-yl)-5,6-dihydrobenzo[f]imidazo[1,2-d][1,4]oxazepin-9-yl)(methyl)amino)propanamide] | 7.16 | 6.28 | 8.66 | 6.32 | – | – | – | – | – | – | – | – | – |
| C[C@H](Nc1cc(F)c2c(c1)OCCn1cc(N3C(=O)OC[C@H]3C(F)F)nc1-2)C(N)=O [Example 78, (S)-2-((2-((S)-4-(difluoromethyl)-2-oxooxazolidin-3-yl)-11-fluoro-5,6-dihydrobenzo[f]imidazo[1,2-d][1,4]oxazepin-9-yl)amino)propanamide] | 6.34 | 5.56 | 8.28 | 6.29 | – | – | – | – | – | – | – | – | – |
| COC[C@H](Nc1ccc2c(c1)OCCn1cc(N3C(=O)OC[C@H]3C(F)F)nc1-2)C(N)=O [Example 90, (S)-2-((2-((S)-4-(difluoromethyl)-2-oxooxazolidin-3-yl)-5,6-dihydrobenzo[f]imidazo[1,2-d][1,4]oxazepin-9-yl)amino)-3-methoxypropanamide] | – | – | – | – | – | 2070 ng·h/mL | 2090 ng·h/mL | 1 h | 1.6 h | 0.5 h | 1290 ng/mL | – | – |
| COC[C@H](Nc1ccc2c(c1)OCCn1cc(N3C(=O)OC[C@H]3CC#N)nc1-2)C(N)=O [Example 120, (S)-2-((2-((R)-4-(cyanomethyl)-2-oxooxazolidin-3-yl)-5,6-dihydrobenzo[f]imidazo[1,2-d][1,4]oxazepin-9-yl)amino)-3-methoxypropanamide] | 6.70 | 6.01 | 8.33 | 6.28 | 113 | – | – | – | – | – | – | 43 | 210 |
| C[C@H](Nc1ccc2c(c1)OCCn1c-2nc(N2C(=O)OC[C@H]2C(F)F)c1F)C(N)=O [Example 10, (S)-2-((2-((S)-4-(difluoromethyl)-2-oxooxazolidin-3-yl)-3-fluoro-5,6-dihydrobenzo[f]imidazo[1,2-d][1,4]oxazepin-9-yl)amino)propanamide] | 5.85 | < 5.00 | 8.10 | 5.75 | – | – | – | – | – | – | – | – | >1266 |

Second part, the compound after the results:

| pIC50 [1] | pIC50 [2] | pIC50 [3] | pIC50 [4] | Selectivity of PI3Kα vs PI3Kγ [3] | AUC(0-t) [5] | AUC(0-inf) [5] | half-life [5] | MRT [5] | Tmax [5] | Cmax [5] | Selectivity of PI3Kα vs PI3Kδ [3] | Selectivity of PI3Kα vs PI3Kβ [3] | SMILES |
| --- | --- | --- | --- | --- | --- | --- | --- | --- | --- | --- | --- | --- | --- |
| 6.67 | 5.73 | 8.77 | 6.44 | – | – | – | – | – | – | – | – | – | CC(Nc1ccc2c(c1)OCCn1cc(N3C(=O)OC(C)[C@H]3C(F)F)nc1-2)C(N)=O (stereo in doubt) [Example 55, (R)-2-((2-((4S,5R)-4-(difluoromethyl)-5-methyl-2-oxooxazolidin-3-yl)-5,6-dihydrobenzo[f]imidazo[1,2-d][1,4]oxazepin-9-yl)amino)propanamide] |
| 6.43 | 5.21 | 8.30 | 6.40 | 80 | 1280 ng·h/mL | 1290 ng·h/mL | 0.8 h | 1.2 h | 0.5 h | 1090 ng/mL | – | – | C[C@H](Nc1ccc2c(c1)OCCn1cc(N3C(=O)N(C)C[C@H]3C(F)F)nc1-2)C(N)=O [Example 53, (S)-2-((2-((S)-5-(difluoromethyl)-3-methyl-2-oxoimidazolidin-1-yl)-5,6-dihydrobenzo[f]imidazo[1,2-d][1,4]oxazepin-9-yl)amino)propanamide] |
| 6.39 | 5.84 | 8.40 | 6.35 | – | – | – | – | – | – | – | – | – | CC(C)[C@H](Nc1ccc2c(c1)OCCn1cc(N3C(=O)OC[C@H]3C(F)F)nc1-2)C(N)=O [Example 38, (S)-2-((2-((S)-4-(difluoromethyl)-2-oxooxazolidin-3-yl)-5,6-dihydrobenzo[f]imidazo[1,2-d][1,4]oxazepin-9-yl)amino)-3-methylbutanamide] |
| 6.72 | 5.78 | 8.68 | 6.29 | – | – | – | – | – | – | – | 90 | – | C[C@H](Nc1ccc2c(c1)OCCn1cc(N3C(=O)CC[C@H]3C(F)F)nc1-2)C(N)=O [Example 97, (S)-2-((2-((S)-2-(difluoromethyl)-5-oxopyrrolidin-1-yl)-5,6-dihydrobenzo[f]imidazo[1,2-d][1,4]oxazepin-9-yl)amino)propanamide] |
| 6.19 | 5.34 | 8.03 | 5.68 | 223 | – | – | – | – | – | – | 70 | 492 | C[C@H](Nc1ccc2c(c1)OCCn1cc(N3CC(F)(F)COC3=O)nc1-2)C(N)=O [Example 66, (S)-2-((2-(5,5-difluoro-2-oxo-1,3-oxazinan-3-yl)-5,6-dihydrobenzo[f]imidazo[1,2-d][1,4]oxazepin-9-yl)amino)propanamide] |
| 6.55 | 5.71 | 8.60 | 6.30 | 202 | – | – | – | – | – | – | 112 | 779 | C[C@H](Nc1ccc2c(c1)OCCn1cc(N3C(=O)CC[C@H]3CC#N)nc1-2)C(N)=O [Example 117, (S)-2-((2-((S)-2-(cyanomethyl)-5-oxopyrrolidin-1-yl)-5,6-dihydrobenzo[f]imidazo[1,2-d][1,4]oxazepin-9-yl)amino)propanamide] |
